A word on the Ki: it is a measure of affinity in units of concentration, obtained from inhibition or displacement. Low readings indicate higher affinity, high ones lower affinity.

The target of assay [1] is T1, Alpha-1A adrenergic receptor (Homo sapiens, UniProt P35348).
T1 sequence (P35348 whole entry): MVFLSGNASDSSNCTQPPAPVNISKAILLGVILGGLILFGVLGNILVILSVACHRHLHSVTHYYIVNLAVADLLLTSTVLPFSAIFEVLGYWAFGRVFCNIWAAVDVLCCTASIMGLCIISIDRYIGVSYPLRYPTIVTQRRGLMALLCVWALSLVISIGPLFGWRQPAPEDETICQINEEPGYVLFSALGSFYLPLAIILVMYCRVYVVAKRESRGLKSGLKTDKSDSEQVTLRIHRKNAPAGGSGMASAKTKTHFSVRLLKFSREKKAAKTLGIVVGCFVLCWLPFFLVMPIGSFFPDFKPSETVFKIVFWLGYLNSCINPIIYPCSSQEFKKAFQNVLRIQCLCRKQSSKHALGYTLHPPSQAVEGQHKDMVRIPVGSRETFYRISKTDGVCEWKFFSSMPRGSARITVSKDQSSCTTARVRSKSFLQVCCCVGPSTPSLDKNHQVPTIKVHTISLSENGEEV
Nature of the assay: Affinity to Alpha-1 adrenergic receptor determined by radioligand binding techniques from rat-1 fibroblasts membranes.

Assay [2] concerns the target T2, Alpha-2C adrenergic receptor (Homo sapiens) (UniProt P18825).
T2 sequence (whole entry): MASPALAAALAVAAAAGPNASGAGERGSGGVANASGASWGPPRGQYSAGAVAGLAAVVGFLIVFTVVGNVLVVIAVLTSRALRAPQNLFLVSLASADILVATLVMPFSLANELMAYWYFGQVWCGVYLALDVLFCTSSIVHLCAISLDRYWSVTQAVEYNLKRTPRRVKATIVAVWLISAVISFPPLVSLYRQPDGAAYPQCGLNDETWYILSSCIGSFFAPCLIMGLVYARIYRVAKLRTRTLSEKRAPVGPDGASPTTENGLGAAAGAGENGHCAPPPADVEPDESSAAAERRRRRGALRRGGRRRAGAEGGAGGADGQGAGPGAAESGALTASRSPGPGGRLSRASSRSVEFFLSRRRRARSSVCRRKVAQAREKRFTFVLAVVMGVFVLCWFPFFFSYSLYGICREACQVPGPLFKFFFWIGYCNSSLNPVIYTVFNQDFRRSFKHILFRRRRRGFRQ
Nature of the assay: Efficacy as percentage of the maximal effect observed for nonselective agonist UK-14304 in CHO cells expressing human Alpha-2C adrenergic receptor. It is filed as functional, cell-based.

Assay [3] addresses T3, Alpha-2B adrenergic receptor (Homo sapiens, UniProt P18089).
T3 sequence (P18089 whole entry): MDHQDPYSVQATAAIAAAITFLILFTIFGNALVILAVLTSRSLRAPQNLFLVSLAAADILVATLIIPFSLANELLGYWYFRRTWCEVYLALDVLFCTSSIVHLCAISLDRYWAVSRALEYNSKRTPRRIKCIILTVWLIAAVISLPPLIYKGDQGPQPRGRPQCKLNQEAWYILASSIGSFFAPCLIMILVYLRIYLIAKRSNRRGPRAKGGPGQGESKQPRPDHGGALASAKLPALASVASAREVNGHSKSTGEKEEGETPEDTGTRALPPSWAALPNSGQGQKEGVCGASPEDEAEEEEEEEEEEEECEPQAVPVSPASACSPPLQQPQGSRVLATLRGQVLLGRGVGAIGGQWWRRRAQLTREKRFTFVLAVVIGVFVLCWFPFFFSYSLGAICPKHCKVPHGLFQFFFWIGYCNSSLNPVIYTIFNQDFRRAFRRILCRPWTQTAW
Put plainly: Affinity to human Alpha-2B adrenergic receptor determined by radioligand binding techniques from chinese hamster ovary (CHO) cells. The format is cell-based.

Assay [4] concerns the target T4, Alpha-1D adrenergic receptor (Homo sapiens, UniProt P25100).
T4 sequence (P25100 whole entry): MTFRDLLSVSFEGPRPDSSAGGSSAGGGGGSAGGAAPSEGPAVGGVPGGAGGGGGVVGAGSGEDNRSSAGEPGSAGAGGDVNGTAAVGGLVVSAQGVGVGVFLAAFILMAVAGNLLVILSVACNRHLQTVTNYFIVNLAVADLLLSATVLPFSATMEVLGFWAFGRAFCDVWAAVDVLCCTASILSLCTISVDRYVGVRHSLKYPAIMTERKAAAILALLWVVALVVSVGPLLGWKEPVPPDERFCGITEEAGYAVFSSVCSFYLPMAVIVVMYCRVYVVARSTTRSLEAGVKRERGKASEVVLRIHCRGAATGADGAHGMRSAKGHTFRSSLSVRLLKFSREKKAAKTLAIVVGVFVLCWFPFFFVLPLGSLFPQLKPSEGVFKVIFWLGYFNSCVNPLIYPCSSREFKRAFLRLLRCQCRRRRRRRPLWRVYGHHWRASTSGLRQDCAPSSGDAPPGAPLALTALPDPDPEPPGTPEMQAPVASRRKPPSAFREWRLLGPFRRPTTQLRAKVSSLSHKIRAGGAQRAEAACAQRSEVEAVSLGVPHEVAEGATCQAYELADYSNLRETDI
Nature of the assay: Affinity to human Alpha-1D adrenergic receptor determined by radioligand binding techniques from rat-1 fibroblasts membranes.

The target of assay [5] is T5, Alpha-2C adrenergic receptor (Homo sapiens, UniProt P18825).
T5 sequence (P18825 whole entry): T2 sequence (whole entry)
Put plainly: Affinity to human Alpha-2C adrenergic receptor determined by radioligand binding techniques from chinese hamster ovary (CHO) cells. The format is cell-based.

Assay [6] addresses T6, Alpha-1B adrenergic receptor (Homo sapiens, UniProt P35368).
T6 sequence (P35368 whole entry): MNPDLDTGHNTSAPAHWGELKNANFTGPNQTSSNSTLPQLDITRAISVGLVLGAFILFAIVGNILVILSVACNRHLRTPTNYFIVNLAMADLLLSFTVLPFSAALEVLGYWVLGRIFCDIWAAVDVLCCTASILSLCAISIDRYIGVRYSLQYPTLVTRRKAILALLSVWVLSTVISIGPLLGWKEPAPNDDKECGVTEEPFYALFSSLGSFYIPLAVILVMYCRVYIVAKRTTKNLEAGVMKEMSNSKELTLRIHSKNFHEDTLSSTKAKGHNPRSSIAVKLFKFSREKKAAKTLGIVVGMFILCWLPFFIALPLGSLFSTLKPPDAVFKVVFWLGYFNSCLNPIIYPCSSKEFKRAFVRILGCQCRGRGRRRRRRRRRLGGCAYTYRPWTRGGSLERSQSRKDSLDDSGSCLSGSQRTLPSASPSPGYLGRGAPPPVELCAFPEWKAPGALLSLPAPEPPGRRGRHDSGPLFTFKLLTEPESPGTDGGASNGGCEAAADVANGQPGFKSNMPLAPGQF
Nature of the assay: Affinity to human Alpha-1B adrenergic receptor determined by radioligand binding techniques from rat-1 fibroblasts membranes.

`C[S+]([O-])c1ccccc1NCC1=NCCN1` (configuration not stated): the inhibitory constant (Ki) in assay [1] was 1290 nM; in assay [3], > 6310 nM; in assay [4] it was 1200 nM; in assay [5], > 5010 nM; in assay [6] it was 794 nM. Further, in assay [2], the Max was determined as 74%.
With `CS(=O)(=O)c1cc(Cl)ccc1NCC1=NCCN1`, the Ki was 457 nM in assay [1]; > 6310 nM in assay [3]; 871 nM in assay [4]; 3980 nM in assay [5]; 646 nM in assay [6]. In assay [2], this compound came in with a Max of 54%.
`CS(=O)(=O)c1ccc(C(F)(F)F)cc1NCC1=NCCN1`: the Ki in assay [1] is > 12600 nM; in assay [3] it was > 6310 nM; in assay [4], > 15800 nM; in assay [5] it was > 5010 nM; in assay [6] it was > 10000 nM. In assay [2], this compound registered a Max of 25%.
With `CSc1c(F)cccc1NCC1=NCCN1`, the Ki in assay [1] is 148 nM; in assay [3], 3980 nM; in assay [4], 302 nM; in assay [5] it was 219 nM; in assay [6], 240 nM. In assay [2], this compound gave a Max of 104%.
Consider `CS(=O)(=O)c1cc(F)ccc1NCC1=NCCN1`, for which the Ki in assay [1] is 661 nM; in assay [3], > 6310 nM; in assay [4] it was 1620 nM; in assay [5] it was > 5010 nM; in assay [6], 513 nM. The same compound yielded a Max in assay [2] of 32%.
Turning to `CS(=O)(=O)c1ccc(F)cc1NCC1=NCCN1`, the Ki in assay [1] is 813 nM; in assay [3], > 6310 nM; in assay [4], 2630 nM; in assay [5], > 5010 nM; in assay [6] it was 1320 nM. Besides, the Max in assay [2] was determined as 91%.
Consider `CC(C)S(=O)(=O)c1ccccc1NCC1=NCCN1`, for which the Ki in assay [1] was 2690 nM; in assay [3] it was > 6310 nM; in assay [4] it was 2820 nM; in assay [5], > 5010 nM; in assay [6], 1000 nM. Also, the Max in assay [2] amounted to 50%.
Take `CS(=O)(=O)c1cccc(F)c1NCC1=NCCN1`: the inhibitory constant (Ki) in assay [1] was 417 nM; in assay [3] it was > 6310 nM; in assay [4], 912 nM; in assay [5], 692 nM; in assay [6] it was 380 nM. For the same compound, the Max in assay [2] worked out at 93%.
In the case of `CSc1ccc(Cl)cc1NCC1=NCCN1`, the Ki in assay [1] is 18.6 nM; in assay [3], 676 nM; in assay [4] it was 4.68 nM; in assay [5], 170 nM; in assay [6] it was 69.2 nM. The compound further displayed a Max in assay [2] of 92%.
For `CSc1cc(F)ccc1NCC1=NCCN1`, the Ki is 20.9 nM in assay [1]; 851 nM in assay [3]; 5.01 nM in assay [4]; 219 nM in assay [5]; 15.1 nM in assay [6]. In assay [2], this compound gave a Max of 82%.
Consider `CCCS(=O)(=O)c1ccccc1NCC1=NCCN1`, for which the Ki in assay [1] was 2190 nM; in assay [3], > 6310 nM; in assay [4], 1380 nM; in assay [5], 2630 nM; in assay [6], 832 nM. Moreover, the Max in assay [2] is 56%.
For `CSc1ccc(C(F)(F)F)cc1NCC1=NCCN1`, the Ki in assay [1] is 589 nM; in assay [3], 1660 nM; in assay [4] it was 479 nM; in assay [5], 603 nM; in assay [6] it was 2040 nM. Besides, the Max in assay [2] came out at 45%.
Consider `CSc1ccc(F)cc1NCC1=NCCN1`, for which the Ki in assay [1] is 33.1 nM; in assay [3], 331 nM; in assay [4], 6.17 nM; in assay [5], 115 nM; in assay [6], 40.7 nM. For the same compound, the Max in assay [2] is 97%.
With `CS(=O)(=O)c1c(F)cccc1NCC1=NCCN1`, the Ki in assay [1] is 550 nM; in assay [3], > 6310 nM; in assay [4], 3470 nM; in assay [5], 257 nM; in assay [6], 2290 nM. For the same compound, in assay [2], the Max came out at 93%.
Turning to `CSc1ccccc1NCC1=NCCN1`, the inhibition constant Ki was 43.7 nM in assay [1]; 776 nM in assay [3]; 11.2 nM in assay [4]; 145 nM in assay [5]; 66.1 nM in assay [6]. Also, the Max in assay [2] amounted to 82%.
For the compound `Cc1ccc(S(C)(=O)=O)c(NCC2=NCCN2)c1`, the inhibitory constant (Ki) was 776 nM in assay [1]; > 6310 nM in assay [3]; 4790 nM in assay [4]; > 5010 nM in assay [5]; 3470 nM in assay [6]. The compound also registered a Max in assay [2] of 76%.
`COc1ccc(SC)c(NCC2=NCCN2)c1`: the Ki in assay [1] is 174 nM; in assay [3], > 6310 nM; in assay [4] it was 107 nM; in assay [5], 603 nM; in assay [6], 692 nM. Moreover, the Max in assay [2] worked out at 74%.
For `CC(C)Sc1ccccc1NCC1=NCCN1`, the Ki in assay [1] is 57.5 nM; in assay [3], 2340 nM; in assay [4] it was 224 nM; in assay [5], 166 nM; in assay [6], 170 nM. The same compound gave a Max in assay [2] of 91%.
Turning to `CS(=O)(=O)c1ccccc1NCC1=NCCN1`, the Ki in assay [1] was 589 nM; in assay [3], > 6310 nM; in assay [4], 3800 nM; in assay [5], > 5010 nM; in assay [6] it was 1290 nM. In addition, the Max in assay [2] amounted to 68%.
Regarding `CSc1ccc(C)cc1NCC1=NCCN1`, the Ki is 20.9 nM in assay [1]; 977 nM in assay [3]; 17.4 nM in assay [4]; 200 nM in assay [5]; 123 nM in assay [6]. This compound returned a Max in assay [2] of 81%.
Consider `CS(=O)(=O)c1ccc(Cl)cc1NCC1=NCCN1`, for which the Ki in assay [1] is 537 nM; in assay [3], > 6310 nM; in assay [4], 2400 nM; in assay [5], 4790 nM; in assay [6], 2950 nM. For the same compound, the Max in assay [2] was determined as 81%.
For `CCS(=O)(=O)c1ccccc1NCC1=NCCN1`, the Ki in assay [1] was 1200 nM; in assay [3], > 6310 nM; in assay [4], 2240 nM; in assay [5], 2510 nM; in assay [6], 912 nM. Moreover, the Max in assay [2] is 64%.

The values are drawn from ChEMBL document CHEMBL1135421, “2-(Anilinomethyl)imidazolines as alpha1 adrenergic receptor agonists: the discovery of alpha1a subtype selective 2'-alkylsulfonyl-substituted analogues” (J Med Chem, 2002).
